Measured values reported in PubChem BioAssay AID1919015 (Molecular Pharmacology Branch, DTP, NCI, 2023).

System: OVCAR-5 complex spheroids with HUVEC/MSC, viability, % test/control
Experiment: Anticancer human tumor OVCAR-5 cell line growth inhibition [AhR];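 also: spheroids exposed to compounds for 7 days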;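 as to viability, T/C: 100% = DMSO vehicle control wells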
Settings: for IC50: curve of first compound; for viability, T/C: stronger effect = lower value
How it was run: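 Complex tumor spheroids co-cultured with HUVEC and human MSC stroma; AhR antagonists tested in combination with standard-of-care and investigational agents. Top concentration at or near clinical Cmax (else 10 microM), half-log dilutions; growth expressed as percent test/control.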

[1] = second compound 0.1 µM, first compound 0.0316 µM
[2] = second compound 0.1 µM, first compound 0.1 µM
[3] = second compound 0.1 µM, first compound 0.316 µM
[4] = second compound 0.1 µM, first compound 1 µM
[5] = second compound 0.1 µM, first compound 3.16 µM
[6] = second compound 0.1 µM, first compound 10 µM
[7] = second compound 0.316 µM, first compound 0.0316 µM
[8] = second compound 0.316 µM, first compound 0.1 µM
[9] = second compound 0.316 µM, first compound 0.316 µM
[10] = second compound 0.316 µM, first compound 1 µM
[11] = second compound 0.316 µM, first compound 3.16 µM
[12] = second compound 0.316 µM, first compound 10 µM
[13] = second compound 1 µM, first compound 0.0316 µM
[14] = second compound 1 µM, first compound 0.1 µM
[15] = second compound 1 µM, first compound 0.316 µM
[16] = second compound 1 µM, first compound 1 µM
[17] = second compound 1 µM, first compound 3.16 µM
[18] = second compound 1 µM, first compound 10 µM
[19] = second compound 3.16 µM, first compound 0.0316 µM
[20] = second compound 3.16 µM, first compound 0.1 µM
[21] = second compound 3.16 µM, first compound 0.316 µM
[22] = second compound 3.16 µM, first compound 1 µM
[23] = second compound 3.16 µM, first compound 3.16 µM
[24] = second compound 3.16 µM, first compound 10 µM
[25] = second compound 10 µM, first compound 0.0316 µM
[26] = second compound 10 µM, first compound 0.1 µM
[27] = second compound 10 µM, first compound 0.316 µM
[28] = second compound 10 µM, first compound 1 µM
[29] = second compound 10 µM, first compound 3.16 µM
[30] = second compound 10 µM, first compound 10 µM

**Q.** Which IC50 (second compound 0.1 µM) does the source give for Nc1ccccc1NC(=O)c1ccc(CNC(=O)OCc2cccnc2)cc1 + Cc1ccccc1N=Nc1ccc(NC(=O)c2ccnn2C)c(C)c1 here?
**A.** 913 nM

**Q.** And the IC50 (second compound 0.316 µM)?
**A.** 824 nM

**Q.** And the IC50 (second compound 1 µM)?
**A.** 856 nM

**Q.** And the IC50 (second compound 3.16 µM)?
**A.** 827 nM

**Q.** What about the IC50 (second compound 10 µM) of the same compound?
**A.** 1110 nM

**Q.** What about the viability, T/C [1] of the same compound?
**A.** 95.1%

**Q.** What about the viability, T/C [2] of the same compound?
**A.** 89.9%

**Q.** What about the viability, T/C [3] of the same compound?
**A.** 74.8%

**Q.** What about the viability, T/C [4] of the same compound?
**A.** 48.6%

**Q.** What about the viability, T/C [5] of the same compound?
**A.** 20.3%

**Q.** And the viability, T/C [6]?
**A.** 7.82%

**Q.** And the viability, T/C [7]?
**A.** 98.8%

**Q.** And the viability, T/C [8]?
**A.** 93.6%

**Q.** And the viability, T/C [9]?
**A.** 76.6%

**Q.** What about the viability, T/C [10] of the same compound?
**A.** 44.4%

**Q.** And the viability, T/C [11]?
**A.** 19.3%

**Q.** What about the viability, T/C [12] of the same compound?
**A.** 8.39%

**Q.** What about the viability, T/C [13] of the same compound?
**A.** 102%

**Q.** What about the viability, T/C [14] of the same compound?
**A.** 94.4%

**Q.** What about the viability, T/C [15] of the same compound?
**A.** 83.9%

**Q.** And the viability, T/C [16]?
**A.** 43.8%

**Q.** And the viability, T/C [17]?
**A.** 18.7%

**Q.** And the viability, T/C [18]?
**A.** 9.13%

**Q.** And the viability, T/C [19]?
**A.** 103%

**Q.** What about the viability, T/C [20] of the same compound?
**A.** 99.9%

**Q.** And the viability, T/C [21]?
**A.** 79.1%

**Q.** What about the viability, T/C [22] of the same compound?
**A.** 44.1%

**Q.** And the viability, T/C [23]?
**A.** 19%

**Q.** And the viability, T/C [24]?
**A.** 9.43%

**Q.** And the viability, T/C [25]?
**A.** 91.1%

**Q.** And the viability, T/C [26]?
**A.** 96.1%

**Q.** What about the viability, T/C [27] of the same compound?
**A.** 75.4%

**Q.** And the viability, T/C [28]?
**A.** 56%

**Q.** And the viability, T/C [29]?
**A.** 19.9%

**Q.** What about the viability, T/C [30] of the same compound?
**A.** 9.42%

**Q.** How did the IC50 (second compound 0.1 µM) turn out when O=C(C=Cc1cccc(S(=O)(=O)Nc2ccccc2)c1)NO + Cc1ccccc1N=Nc1ccc(NC(=O)c2ccnn2C)c(C)c1 was run?
**A.** 1100 nM

**Q.** What about the IC50 (second compound 0.316 µM) of the same compound?
**A.** 1080 nM

**Q.** And the IC50 (second compound 1 µM)?
**A.** 1180 nM

**Q.** What about the IC50 (second compound 3.16 µM) of the same compound?
**A.** 1030 nM

**Q.** And the IC50 (second compound 10 µM)?
**A.** 1060 nM

**Q.** What about the viability, T/C [1] of the same compound?
**A.** 100%

**Q.** What about the viability, T/C [2] of the same compound?
**A.** 89.7%

**Q.** What about the viability, T/C [3] of the same compound?
**A.** 76.1%

**Q.** What about the viability, T/C [4] of the same compound?
**A.** 53%

**Q.** What about the viability, T/C [5] of the same compound?
**A.** 24.8%

**Q.** What about the viability, T/C [6] of the same compound?
**A.** 5.54%

**Q.** And the viability, T/C [7]?
**A.** 101%

**Q.** And the viability, T/C [8]?
**A.** 97.2%

**Q.** And the viability, T/C [9]?
**A.** 77.2%

**Q.** What about the viability, T/C [10] of the same compound?
**A.** 54.2%

**Q.** What about the viability, T/C [11] of the same compound?
**A.** 21.3%

**Q.** And the viability, T/C [12]?
**A.** 5.42%

**Q.** And the viability, T/C [13]?
**A.** 103%

**Q.** And the viability, T/C [14]?
**A.** 97.4%

**Q.** What about the viability, T/C [15] of the same compound?
**A.** 84.8%

**Q.** What about the viability, T/C [16] of the same compound?
**A.** 54.1%

**Q.** And the viability, T/C [17]?
**A.** 22.6%

**Q.** What about the viability, T/C [18] of the same compound?
**A.** 5.11%

**Q.** And the viability, T/C [19]?
**A.** 103%

**Q.** What about the viability, T/C [20] of the same compound?
**A.** 99.3%

**Q.** And the viability, T/C [21]?
**A.** 81%

**Q.** What about the viability, T/C [22] of the same compound?
**A.** 50.2%

**Q.** What about the viability, T/C [23] of the same compound?
**A.** 21.6%

**Q.** And the viability, T/C [24]?
**A.** 5.09%

**Q.** What about the viability, T/C [25] of the same compound?
**A.** 93.4%

**Q.** And the viability, T/C [26]?
**A.** 96.2%

**Q.** What about the viability, T/C [27] of the same compound?
**A.** 76.2%

**Q.** And the viability, T/C [28]?
**A.** 52%

**Q.** And the viability, T/C [29]?
**A.** 22.3%

**Q.** What about the viability, T/C [30] of the same compound?
**A.** 5.86%

**Q.** Which results are given for O=C(c1cc(Cc2n[nH]c(=O)c3ccccc23)ccc1F)N1CCN(C(=O)C2CC2)CC1 + Cc1ccccc1N=Nc1ccc(NC(=O)c2ccnn2C)c(C)c1?
**A.** IC50 (second compound 0.1 µM): > 10000 nM; IC50 (second compound 0.316 µM): > 10000 nM; IC50 (second compound 1 µM): > 10000 nM; IC50 (second compound 3.16 µM): > 10000 nM; IC50 (second compound 10 µM): > 10000 nM; viability, T/C [1]: 103%; viability, T/C [2]: 105%; viability, T/C [3]: 102%; viability, T/C [4]: 99.8%; viability, T/C [5]: 92.5%; viability, T/C [6]: 85%; viability, T/C [7]: 107%; viability, T/C [8]: 109%; viability, T/C [9]: 105%; viability, T/C [10]: 104%; viability, T/C [11]: 98.3%; viability, T/C [12]: 90.6%; viability, T/C [13]: 111%; viability, T/C [14]: 114%; viability, T/C [15]: 115%; viability, T/C [16]: 109%; viability, T/C [17]: 101%; viability, T/C [18]: 94.2%; viability, T/C [19]: 111%; viability, T/C [20]: 115%; viability, T/C [21]: 114%; viability, T/C [22]: 106%; viability, T/C [23]: 107%; viability, T/C [24]: 99.4%; viability, T/C [25]: 99.3%; viability, T/C [26]: 110%; viability, T/C [27]: 103%; viability, T/C [28]: 106%; viability, T/C [29]: 96.7%; viability, T/C [30]: 89.1%
